The values that follow come from US4954518A, “4H-1-benzopyran-4-one derivative or its salt, process for producing the same and pharmaceutical composition comprising the same as active ingredient” (Toyama Chemical Company, Ltd., priority 1987, dated 1990).

Like-named read-outs stand apart in the source and are kept apart here.

One data set deals with mice. Description: Oral acute toxicity in mice. In kind it is in vivo, ICR strain male mice. Particulars: for behavioural changes: mouse, in vivo, po, 500 mg/kg; for death cases: oral, dose of 500 mg/kg, observed over one week. The protocol:
(§1) ICR strain male mice (body weight: 20-25 g, […], 3 mice per group) were tested for oral acute toxicity. A test compound suspended in 0.5% (w/v) aqueous carboxymethylcellulose solution was orally administered to the mice in a proportion of 0.2 ml/10 g of body weight. After the administration, general symptom was observed over one week.

For data set [1], the system named is Carrageenin-Induced Paw Edema. Description: Carrageenin-induced paw edema in rats (inhibitory activity). In kind it is in vivo, male rats of Donryu strain. Particulars: Rattus norvegicus, read-out: Inhibitory effect (carrageenin-induced paw edema). The protocol: (1) Carrageenin-induced paw edema
This inhibitory activity was tested according to the method of C. A. Winter et al. [Proceedings of the Society for Experimental Biology and Medicine, vol.
After one hour, 0.1 ml of a 1% carrageenin was injected into the subplantar region of the left hind paw. Three hours after carrageenin injection, the paw volume was measured plethysmographically and the percent swelling was determined from the volume before injection and the inhibitory percentage was calculated according to the following equation: [formula]

A short description of data set [2]: Ulcerogenic effect in rats. Also noted: species or system male rats of Wister strain. The conditions noted are these: rat, in vivo. The protocol:
To male rats of Wister strain (body weight: 180-230 g, 7 to 8 rats per group) which had been fasted for 24 hours with free access to water was orally administered a test compound suspended in 0.5% (w/v) aqueous carboxymethylcellulose solution in a proportion of 1 ml/100 g of body weight. The rats were allowed to stand under abstinence from food and water for 24 hours, and thereafter, sacrificed by dislocation of cervical vertebrae, after which the stomach was removed and fixed in 1% (v/v) formaline solution for 30 minutes. This stomach was split along the greater curvature and the length (mm) of the erosion and ulcer formed on the gastric mucosa was measured by a stereomicroscope, and the total sum of the lengths (lmm) was determined, from which ulcerogenic index was assessed based on the following arbitrary scale:
Subsequently, UD50 (mg/kg) which is the dose of the test compound which induces ulcerogenic index 5 was determined on each test compound.
*Rats were allowed to stand for 5 hours under abstinence from food and […]

The subject of a further data set is Adjuvant Arthritis. Description: Adjuvant-induced arthritis in rats (inhibitory activity). The data set is classed as in vivo, male rats of Westar-Lewis strain. The conditions noted are these: for inhibition in vivo at 3 mg/kg / inhibition in vivo at 10 mg/kg: Rattus norvegicus, read-out: Inhibitory effect (adjuvant arthritis, Table 4); for Inhibitory effect (adjuvant arthritis, Table 3): seven continuous days. On the procedure: (2) Adjuvant-induced arthritis
This inhibitory activity was tested according to the method of E. M. Glenn [American Journal of Veterinary Research, vol. 27, p. 339 (1966)].
To male rats of Westar-Lewis strain (body weight: 190-230 g, 5 rats per group) was intradermally injected 0.1 ml of a suspension of heat-killed Mycobacterium tuberculosis in liquid paraffin at a concentration of 6 mg/ml as the adjuvant into the root of tail. Eighteen days after the adjuvant injection, the rats were classified based on the volume of both hind paws, and then a suspension of the test compound in 0.5% (w/v) aqueous carboxymethylcellulose solution was orally administered to the classified rats in a proportion of 1 ml/100 g of body weight once a day for seven continuous days (see Table 3) or four continuous days (see Table 4). On the day following the last administration, the volume of both hind paws was measured, and in the same manner as in (1) above, the inhibitory effect was determined. Incidentally, the result is shown in Tables 3 and 4 in terms of the inhibitory effect indicated below based on inhibition (x%).

A short description of data set [3]: Oral acute toxicity in mice. Particulars: mouse, in vivo; oral, mice. In kind it is in vivo, ICR strain male mice. The protocol:
as §1

Setting [4] is: 10 mg/kg oral, 1 h before carrageenin, paw volume 3 h after.
The mark [5] stands for this setting: 3 mg/kg oral once a day, four continuous days.
Setting [6] is: 10 mg/kg oral once a day, four continuous days.

`Cc1ccccc1Oc1cc2c(=O)c(NC=O)coc2cc1NS(C)(=O)=O` [Compound 46]: in the data set with mice, the behavioural changes entry is on record as “no behavioural changes were observed” and the death cases result was “no death case was found”. Also, the inhibition in vivo at 10 mg/kg in data set [1] (setting [4]) is over 40%. In data set [2] (po), this compound gave a TD50 at 24 h of over 500 mg/kg. The inhibition in vivo at 3 mg/kg in the data set on Adjuvant Arthritis (setting [5]) was in the range of 20 to 30%.

For `CN(C=O)c1coc2cc(NS(C)(=O)=O)c(Oc3ccccc3)cc2c1=O` [Compound 100], the inhibition in vivo at 10 mg/kg in data set [1] (setting [4]) is over 40%; in the data set with Adjuvant Arthritis (setting [6]), 20 to 30%.

Turning to `Cc1oc2cc(NS(C)(=O)=O)c(Oc3ccccc3)cc2c(=O)c1C(N)=O` [Compound 61], the results for the inhibition in vivo at 10 mg/kg (in data set [1] (setting [4]); in the data set with Adjuvant Arthritis (setting [6])) were 15 to 20% and 30 to 40%, respectively.

As to `CS(=O)(=O)Nc1cc2occ(C(N)=O)c(=O)c2cc1Oc1ccccc1` [Compound 122], the inhibition in vivo at 10 mg/kg in data set [1] (setting [4]) was 20 to 30%. The inhibition in vivo at 3 mg/kg with Adjuvant Arthritis (setting [5]) is 20 to 30%.

As to `CS(=O)(=O)Nc1cc2occ(NC=O)c(=O)c2cc1Oc1ccc(F)cc1F` [Compound 39], in the data set on mice, the behavioural changes result was “no behavioural changes were observed” and the death cases entry is given as “no death case was found”. In addition, the inhibition in vivo at 10 mg/kg in data set [1] (setting [4]) was over 40%. Also, the TD50 at 24 h in data set [2] (po) was over 500 mg/kg. Also, in the data set with Adjuvant Arthritis (setting [5]), the inhibition in vivo at 3 mg/kg lay within 20 to 30%.

Take `CS(=O)(=O)Nc1cc2occ(NC=O)c(=O)c2cc1Oc1ccccc1F` [Compound 34]: in the data set on mice, the behavioural changes result is reported as “no behavioural changes were observed” and the death cases result is “no death case was found”. Further, the inhibition in vivo at 10 mg/kg in data set [1] (setting [4]) was over 40%. This compound showed a TD50 at 24 h in data set [2] (po) of over 500 mg/kg. Moreover, the inhibition in vivo at 3 mg/kg in the data set with Adjuvant Arthritis (setting [5]) lay in the range of 30 to 40%.

Turning to `CSc1coc2cc(NS(C)(=O)=O)c(Oc3ccccc3)cc2c1=O` [Compound 4, 7-methylsulfonylamino-3-methylthio-6-phenoxy-4H-1-benzopyran-4-one], the inhibition in vivo at 10 mg/kg in data set [1] (setting [4]) fell in the range of 20 to 30%. In addition, in the data set on Adjuvant Arthritis (setting [5]), the inhibition in vivo at 3 mg/kg lay in the range of 20 to 30%.

With `CS(=O)(=O)Nc1cc2occ(NC=O)c(=O)c2cc1Oc1ccccc1` [Compound 99], in the data set with mice, the behavioural changes entry was “no behavioural changes were observed” and the death cases result is on record as “no death case was found”. Besides, in data set [1] (setting [4]), the inhibition in vivo at 10 mg/kg was over 40%. In addition, in data set [2] (po), the TD50 at 24 h is over 500 mg/kg. Further, the inhibition in vivo at 3 mg/kg in the data set on Adjuvant Arthritis (setting [5]) lay in the range of 20 to 30%.

On to `CS(=O)(=O)Nc1cc2occ(NC=O)c(=O)c2cc1Sc1ccccc1` [Compound 88], for which the inhibition in vivo at 10 mg/kg lay in the range of 30 to 40% in data set [1] (setting [4]) and 20 to 30% in the data set on Adjuvant Arthritis (setting [6]).

With `CS(=O)(=O)Nc1cc2occc(=O)c2cc1Nc1ccccc1` [Compound 12], the inhibition in vivo at 10 mg/kg in data set [1] (setting [4]) is 30 to 40%. For the same compound, the inhibition in vivo at 3 mg/kg in the data set on Adjuvant Arthritis (setting [5]) lay within 30 to 40%.

Take `CC(=O)N(c1cc2occc(=O)c2cc1Oc1ccccc1)S(C)(=O)=O` [Compound 96]: the inhibition in vivo at 10 mg/kg in data set [1] (setting [4]) is 30 to 40%. Besides, the “Inhibitory effect (adjuvant arthritis, Table 3)” value (shortened to “Inhibitory effect”) in the data set with Adjuvant Arthritis (10 mg/kg oral once a day) is “++++ (× ≥ 40)”.

With `Cc1cc(=O)c2cc(Oc3ccccc3)c(NS(C)(=O)=O)cc2o1` [Compound 9], in data set [1] (setting [4]), the inhibition in vivo at 10 mg/kg is 20 to 30%. Further, the “Inhibitory effect” value with Adjuvant Arthritis (10 mg/kg oral once a day) is on record as “++++ (× ≥ 40)”.

`CS(=O)(=O)Nc1cc2occc(=O)c2cc1Oc1ccc(F)cc1F` [Compound 94, 6-(2,4-difluorophenoxy)-7-methylsulfonylamino-4H-1-benzopyran-4-one]: in the data set on mice, the behavioural changes entry is listed as “no behavioural changes were observed” and the death cases result is given as “no death case was found”. Besides, the inhibition in vivo at 10 mg/kg in data set [1] (setting [4]) lay in the range of 30 to 40%. This compound also gave a TD50 at 5 h in data set [2] (po) of over 300 mg/kg. Also, the “Inhibitory effect” value in the data set on Adjuvant Arthritis (10 mg/kg oral once a day) is “++++ (× ≥ 40)”.

Turning to `O=CNc1coc2cc(NS(=O)(=O)CCl)c(Oc3ccccc3)cc2c1=O` [Compound 40], in data set [1] (setting [4]), the inhibition in vivo at 10 mg/kg is over 40%. In addition, the inhibition in vivo at 3 mg/kg with Adjuvant Arthritis (setting [5]) lay within 20 to 30%.

Regarding `CS(=O)(=O)Nc1cc2occc(=O)c2cc1Oc1ccccc1` [Compound 1, 7-methylsulfonylamino-6-phenoxy4H-1-benzopyran-4-one], in the data set with mice, the behavioural changes entry is recorded as “no behavioural changes were observed” and the death cases result is “no death case was found”. Besides, the inhibition in vivo at 10 mg/kg in data set [1] (setting [4]) was in the range of 30 to 40%. Also, the TD50 at 5 h in data set [2] (po) is over 300 mg/kg. For the same compound, the “Inhibitory effect” value in the data set with Adjuvant Arthritis (10 mg/kg oral once a day) is “+++ (30 ≤ × < 40)”.

In data set [3], `COc1ccc2c(c1)c(CC(=O)O)c(C)n2C(=O)c1ccc(Cl)cc1` [IM, indomethacin, reference compound] returned an LD50 at 168 h of 25 mg/kg. Moreover, the inhibition in vivo at 10 mg/kg in data set [1] (po, 3 h) was over 40%. Besides, in data set [2] (oral, 24 hours under abstinence from food and water, read-out: UD50 (dose which induces ulcerogenic index 5)), the TD50 at 24 h was 4.3 mg/kg. For the same compound, the “Inhibitory effect” value in the data set with Adjuvant Arthritis (1 mg/kg oral once a day) is listed as “+++ (30 ≤ × < 40)”. For the same compound, in the data set with Adjuvant Arthritis (po), the inhibition in vivo at 3 mg/kg lay in the range of 30 to 40%.

As to `CNc1coc2cc(NS(C)(=O)=O)c(Oc3ccccc3)cc2c1=O` [Compound 101], the inhibition in vivo at 10 mg/kg in data set [1] (setting [4]) was in the range of 30 to 40%; in the data set on Adjuvant Arthritis (setting [6]), 20 to 30%.

One may read the LD50 as the dose at which mortality reaches 50%. Read a high LD50 as lower toxicity.
